A short description of the assay: Anti-oxidative activity, electron-donating ability by DPPH method. Format: biochemical. The procedure:
A measurement of anti-oxidative activity was performed by using a method of measuring an electron-donating ability with DPPH method. DPPH is an abbreviation for 1,1-diphenyl-2-picrylhydrazyl, and is widely used a marker for measuring anti-oxidative activity due to its radical. The testing processes were as follows: (1) 2 ml of 0.1 mM DPPH (Sigma, D-9132) dissolved in ethanol was treated to 2 ml of sample dissolved in ethanol; (2) it was mixed for 10 minutes, and then maintained at a dark place for 30 minutes; (3) an absorbance was measured at 520 nm; and (4) the degree of anti-oxidative ability (electron-donating ability, EDA) was calculated. Vitamin E (Fluka, 95420) was used as a positive control group and Formula was as follow.
In the above formula, Cabs denotes an absorbance of a negative control group (in the case of treating only ethanol instead of sample) and Sabs denotes an absorbance of sample.

The mark [1] stands for this setting: Table 1, comparison experiment between fustin and fisetin.
Where [2] appears, read: Table 4, DPPH method, absorbance at 520 nm.

Regarding `O=c1c(O)c(-c2ccc(O)c(O)c2)oc2cc(O)ccc12` [Fisetin, 2-(3,4-dihydroxyphenyl)-3,7-dihydroxy-4H-chromen-4-one-hydrate], the “Anti-oxidative Activity (IC50, ug/ml)” value is, setting by setting: under setting [1], 8 µg/mL; under setting [2], 7.8 µg/mL. Besides, the “antioxidative activity of fisetin as compared with that of fustin” value (ratio versus fustin) is on record as “at least 5 times”.
With `O=C1c2ccc(O)cc2O[C@H](c2ccc(O)c(O)c2)[C@H]1O` [Fustin, 2,3-Dihydrofisetin], the “Anti-oxidative Activity (IC50, ug/ml)” value by setting is: under setting [1], 33 µg/mL; under setting [2], 32 µg/mL.

For the origin of these results see US8551537B2, “Rhus verniciflua stokes extract having increased content of active flavonoid compound and method for preparing same” (AZI Company Ltd., priority 2010, dated 2013).
